# In PMC5577582 (Toxins, 2017):
# Positions of bridges follow the written chain, without caps; N, C: chain ends. Residues, ends and D or L forms follow the SMILES beside them.
# Legend:
# [1] = format: physicochemical; conditions: peptide 1 mg/mL in 9:1 v/v H2O/D2O, heated 20 to 80 °C, 500 MHz 1D 1H NMR
# Experimental: A Bruker 500 MHz Avance nuclear magnetic resonance (NMR) spectrometer was used to heat the peptides (1 mg/mL in 9:1 v/v H2O/D2O) and to monitor structural changes at temperatures ranging from 20 to 80 °C. One-dimensional (1D) ^1H NMR spectra and two-dimensional (2D) nuclear Overhauser effect spectroscopy (NOESY) (200 ms mixing time) spectra were acquired and processed using TopSpin 3.5 (Bruker, Billerica, MA, USA) and CCPNMR Analysis 2.4.1 was used in the assignment of the NOE spectra.
# [2] = 30 μM peptide, 24 h; for Degradation at pH 12: phosphate buffer pH 12, 37 °C, RP-HPLC trace compared to pH 4
# [3] = format: physicochemical; conditions: 100 °C in water for 30 min, heating block, cooled to 25 °C, C18 RP-HPLC at 215 nm, MALDI-MS of the products
# [4] = phosphate buffer adjusted to pH 12; conditions: 37 °C, up to 24 h
# [5] = Human serum isolated from male AB plasma; conditions: 37 °C, up to 24 h
Compound,1D 1H NMR spectral changes at 80 °C [1],not cleaved [5],other results
CC[C@H](C)[C@H](NC(=O)[C@H](CCC(=O)O)NC(=O)[C@H](Cc1ccc(O)cc1)NC(=O)[C@H](CCCCN)NC(=O)[C@@H]1CSSC[C@@H]2NC(=O)[C@H](CCC(N)=O)NC(=O)[C@H](CC(=O)O)NC(=O)[C@H](CC(N)=O)NC(=O)[C@H](CO)NC(=O)[C@@H]3CCCN3C(=O)[C@H](CC(N)=O)NC(=O)[C@@H]3CSSC[C@H](NC(=O)[C@H](C(C)C)NC(=O)[C@H](CC(C)C)NC(=O)[C@H](CC(N)=O)NC(=O)[C@H](CO)NC(=O)[C@H](CO)NC(=O)[C@H](CCCCN)NC(=O)[C@H](CSSC[C@H](NC(=O)[C@@H](N)CCC(=O)O)C(=O)N[C@@H](CC(C)C)C(=O)NCC(=O)N[C@@H](Cc4ccccc4)C(=O)NCC(=O)N[C@@H](CCCCN)C(=O)NCC(=O)N3)NC2=O)C(=O)N[C@@H](CO)C(=O)N[C@@H](CCCNC(=N)N)C(=O)N[C@@H](CCCCN)C(=O)N[C@@H](Cc2c[nH]cn2)C(=O)N[C@@H](CCCNC(=N)N)C(=O)N[C@@H](Cc2c[nH]c3ccccc23)C(=O)N1)C(N)=O [HnTx-IV],peak broadening and loss of intensity,,Degradation at pH 12 [2]: completely degraded
"CC[C@H](C)[C@H](NC(=O)[C@H](CCC(N)=O)NC(=O)[C@H](Cc1ccc(O)cc1)NC(=O)[C@H](CCCCN)NC(=O)[C@@H]1CSSC[C@@H]2NC(=O)[C@H](CCCCN)NC(=O)[C@H](CC(=O)O)NC(=O)[C@H](CC(N)=O)NC(=O)[C@H](CO)NC(=O)[C@@H]3CCCN3C(=O)[C@H](CC(N)=O)NC(=O)[C@@H]3CSSC[C@H](NC(=O)[C@H](C(C)C)NC(=O)[C@H](CC(C)C)NC(=O)[C@H](CC(N)=O)NC(=O)[C@@H]4CCCN4C(=O)[C@H](CCCNC(=N)N)NC(=O)[C@H](CSSC[C@H](NC(=O)[C@@H](N)CC(=O)O)C(=O)N[C@@H](CC(C)C)C(=O)NCC(=O)N[C@@H](Cc4ccccc4)C(=O)N[C@@H](CC(C)C)C(=O)N[C@@H](Cc4c[nH]c5ccccc45)C(=O)N[C@@H](CCCCN)C(=O)N3)NC2=O)C(=O)N[C@@H](CO)C(=O)N[C@@H](CCCNC(=N)N)C(=O)N[C@@H](CCCCN)C(=O)N[C@@H](CC(=O)O)C(=O)N[C@@H](CCCCN)C(=O)N[C@@H](Cc2c[nH]c3ccccc23)C(=O)N1)C(=O)O [PaurTx-3] (H-DCLGFLWKCNPSNDKCCRPNLVCSRKDKWCKYQI-OH; disulfide 2-17, 9-23, 16-30)",maintained narrow peaks but also showed some loss in intensity,,Degradation at pH 12 [2]: larger proportion of the folded peptide remaining
CC(C)C[C@@H]1NC(=O)[C@H](Cc2c[nH]cn2)NC(=O)[C@H](CCCCN)NC(=O)[C@@H]2CSSC[C@H](NC(=O)[C@@H](N)[C@@H](C)O)C(=O)N[C@@H](CCCNC(=N)N)C(=O)N[C@@H](Cc3ccc(O)cc3)C(=O)N[C@@H](CC(C)C)C(=O)N[C@@H](Cc3ccccc3)C(=O)NCC(=O)NCC(=O)N[C@H]3CSSC[C@H](NC(=O)[C@H](C)NC1=O)C(=O)N[C@@H](CCCNC(=N)N)C(=O)N[C@@H](CO)C(=O)N[C@@H](CC(=O)O)C(=O)NCC(=O)N[C@@H](CCCCN)C(=O)N[C@@H](Cc1ccc(O)cc1)C(=O)N[C@H](C(=O)N[C@@H](C)C(=O)N[C@@H](Cc1c[nH]c4ccccc14)C(=O)N[C@@H](CC(=O)O)C(=O)NCC(=O)N[C@H](C(=O)N[C@@H](Cc1ccccc1)C(=O)O)[C@@H](C)O)CSSC[C@H](NC(=O)[C@H](CC(=O)O)NC(=O)[C@H](C)NC(=O)[C@H]([C@@H](C)O)NC(=O)[C@H]([C@@H](C)O)NC(=O)[C@H](CCCCN)NC3=O)C(=O)N2 [SgTx-1],peak broadening and loss of intensity,,"Analytical RP-HPLC trace after boiling [3]: minor degradation product; Loss of peptide at pH 2 ([2]; phosphate buffer pH 2, 37 °C, RP-HPLC relative to pH 4): small loss of peptide; Mass loss of degradation product from native peptide after boiling: 18 Da"
DCLGFLWKCNPSNDKCCRPNLVCSRKDKWCKYQI,,more than 90% peptide remaining after a 24 h incubation,"cleaved bond [4]: Q-Ile34, 24 h"
DCLGFMRKCIPDNDKCCRPNLVCSRTHKWCKYVF*,,more than 90% peptide remaining after a 24 h incubation,
ECLEIFKACNPSNDQCCKSSKLVCSRKTRWCKYQI*,,more than 90% peptide remaining after a 24 h incubation,
ECLGFGKGCNPSNDQCCKSSNLVCSRKHRWCKYEI*,,more than 90% peptide remaining after a 24 h incubation,
